# In patent US20130224234A1, “TTLL4 PEPTIDES AND VACCINES CONTAINING THE SAME” (Onco Therapy Science, Inc., priority 2010, published 2013):
# “Also recorded” adds a separate entry of the source.
# Legend:
# [1] = system: peptide-pulsed TISI cells; experiment: In vitro CTL induction, IFN-gamma ELISPOT assay (HLA-A*2402); format: cell-based, human; details: CTLs induced with peptide from HLA-A*2402 positive donor, peptide-pulsed TISI vs control
# Excerpt: Monocyte-derived dendritic cells (DCs) were used as antigen-presenting cells to induce cytotoxic T lymphocyte (CTL) responses against peptides presented on human leukocyte antigen (HLA). DCs were generated in vitro as described elsewhere (Nakahara S et al., Cancer Res 2003, 63(14): 4112-8). Specifically, peripheral blood mononuclear cells isolated from a normal volunteer (HLA-A*2402 positive) by Ficoll-Plaque (Pharmacia) solution were separated by adherence to a plastic tissue culture dish (Becton Dickinson) so as to enrich them as the monocyte fraction. The monocyte-enriched population was cultured in the presence of 1000 U/ml of granulocyte-macrophage colony-stimulating factor (R&D System) and 1000 U/ml of interleukin (IL)-4 (R&D System) in AIM-V Medium (Invitrogen) containing 2% heat-inactivated autologous serum (AS). After 7 days of culture, the cytokine-induced DCs were pulsed with 20 micro-g/ml of each of the synthesized peptides in the presence of 3 micro-g/ml of beta 2-microglobulin for 3 hr at 37 degrees C. in AIM-V Medium. The generated cells appeared to express DC-associated molecules, such as CD80, CD83, CD86 and HLA class II, on their cell surfaces (data not shown). These peptide-pulsed DCs were then inactivated by X-irradiation (20 Gy) and mixing at a 1:20 ratio with autologous CD8+ T cells, obtained by positive selection with CD8 Positive Isolation Kit (Dynal). These cultures were set up in 48-well plates (Corning); each well contained 1.5×10^4 peptide-pulsed DCs, 3×10^5 CD8+ T cells and 10 ng/ml of IL-7 (R&D System) in 0.5 ml of AIM-V/2% AS medium. Three days later, these cultures were supplemented with IL-2 (CHIRON) to a final concentration of 20 IU/ml. On day 7 and 14, the T cells were further stimulated with the autologous peptide-pulsed DCs. The DCs were prepared each time by the same way described above. CTL was tested against peptide-pulsed TISI cells after the 3rd round of peptide stimulation on day 21 (Tanaka H et al., Br J Cancer 2001, 84(1): 94-9; Umano Y et al., Br J Cancer 2001, 84(8): 1052-7; Uchida N et al., Clin Cancer Res 2004, 10(24): 8577-86; Suda T et al., Cancer Sci 2006, 97(5): 411-9; Watanabe T et al., Cancer Sci 2005, 96(8): 498-506).
# (§1) Specifically, peptide-pulsed TISI (1×10^4/well) was prepared as stimulator cells. Cultured cells in 48 wells were used as responder cells. IFN-gamma ELISPOT assay and IFN-gamma ELISA assay were performed under manufacture procedure.
# CTLs for those peptides derived from TTLL4 were generated according to the protocols as described in “Materials and Methods”.
# [2] = system: peptide-pulsed TISI cells; experiment: IFN-gamma ELISA assay of CTL lines (HLA-A*2402); format: cell-based, human; details: CTL lines stimulated with peptide, target cells pulsed with peptide vs without peptide pulse
# Protocol: CTLs were expanded in culture using the method similar to the one described by Riddell et al. (Walter E A et al., N Engl J Med 1995 333(16): 1038-44; Riddell S R et al., Nat Med 1996, 2(2): 216-23). A total of 5×10^4 CTLs were suspended in 25 ml of AIM-V/5% AS medium with 2 kinds of human B-lymphoblastoid cell lines, inactivated by Mitomycin C, in the presence of 40 ng/ml of anti-CD3 monoclonal antibody (Pharmingen). One day after initiating the cultures, 120 IU/ml of IL-2 were added to the cultures. The cultures were fed with fresh AIM-V/5% AS medium containing 30 IU/ml of IL-2 on days 5, 8 and 11 (Tanaka H et al., Br J Cancer 2001, 84(1): 94-9; Umano Y et al., Br J Cancer 2001, 84(8): 1052-7; Uchida N et al., Clin Cancer Res 2004, 10(24): 8577-86; Suda T et al., Cancer Sci 2006, 97(5): 411-9; Watanabe T et al., Cancer Sci 2005, 96(8): 498-506).
# as §1
# (§2) CTL activity of these CTL lines was determined by IFN-gamma ELISA assay (FIG. 2a-f). […] Furthermore, the CTL clones were established by limiting dilution from the CTL lines as described in “Materials and Methods”, and IFN-gamma production from the CTL clones against target cells pulsed peptide was determined by IFN-gamma ELISA assay. […] (FIG. 3a-d).
# [3] = system: peptide-pulsed TISI cells; experiment: IFN-gamma ELISA assay of CTL clones (HLA-A*2402); format: cell-based, human; details: CTL clones by limiting dilution, target cells pulsed with peptide vs control
# Protocol: The dilutions were made to have 0.3, 1, and 3 CTLs/well in 96 round-bottomed micro titer plate (Nalge Nunc International). CTLs were cultured with 1×10^4 cells/well of 2 kinds of human B-lymphoblastoid cell lines, 30 ng/ml of anti-CD3 antibody, and 125 U/ml of IL-2 in a total of […] of AIM-V Medium containing 5% AS. 50 micro-l/well of IL-2 were added to the medium 10 days later so to reach a final concentration of 125 U/ml IL-2. CTL activity was tested on the 14th day, and CTL clones were expanded using the same method as described above (Uchida N et al., Clin Cancer Res 2004, 10(24): 8577-86; Suda T et al., Cancer Sci 2006, 97(5): 411-9; Watanabe T et al., Cancer Sci 2005, 96(8): 498-506).
# as §1, §2
# [4] = system: COS7 cells transfected with TTLL4 and HLA-A*2402; experiment: Specific CTL activity against target cells expressing TTLL4 and HLA-A*2402; format: cell-based, African green monkey; details: for Specific CTL activity against COS7 cells transfected with both TTLL4 and HLA-A*2402: CTL line (9-103) or CTL clones (10-103, 10-773) established with peptide; for Specific CTL activity against control COS7 cells expressing either HLA-A*2402 or TTLL4: controls: COS7 transfected with only full length TTLL4 or only HLA-A*2402
# Excerpt: The cDNA encoding an open reading frame of target genes or HLA-A*2402 was amplified by PCR. The PCR-amplified product was cloned into a vector. The plasmids were transfected into COS7, which is the target genes and HLA-A*2402-null cell line, using lipofectamine 2000 (Invitrogen) according to the manufacturer's recommended procedures. After 2 days from transfection, the transfected cells were harvested with versene (Invitrogen) and used as the target cells (5×10^4 cells/well) for CTL activity assay.
# The established CTL lines and clones raised against each peptide were examined for the ability to recognize target cells that express TTLL4 and HLA-A*2402 molecule. […] COS7 cells transfected with either full length of TTLL4 or HLA-A*2402 were prepared as the controls.
sequence,measurement,setting,value
AYFFCPSTL [SEQ ID NO: 6],"Peptide specific CTL activity (IFN-gamma production, ELISPOT)",[1]; listed as TTLL4-A24-9-79,potent IFN-gamma production; also recorded: significant and specific CTL activity
same,IFN-gamma production of CTL lines (ELISA),[2],potent IFN-gamma production
same,IFN-gamma production of CTL clones (ELISA),[3]; listed as TTLL4-A24-9-79,Potent IFN-gamma productions
CYLHSLPDLF [SEQ ID NO: 20],"Peptide specific CTL activity (IFN-gamma production, ELISPOT)",[1]; listed as TTLL4-A24-10-103,potent IFN-gamma production; also recorded: significant and specific CTL activity
same,IFN-gamma production of CTL lines (ELISA),[2],potent IFN-gamma production
same,IFN-gamma production of CTL clones (ELISA),[3]; listed as TTLL4-A24-10-103,Potent IFN-gamma productions
same,Specific CTL activity against COS7 cells transfected with both TTLL4 and HLA-A*2402,[4]; listed as TTLL4-A24-10-103,specific CTL activity; also recorded: potent CTL activity
same,Specific CTL activity against control COS7 cells expressing either HLA-A*2402 or TTLL4,[4],no significant specific CTL activity was detected
RYLHKPYLI [SEQ ID NO: 1],"Peptide specific CTL activity (IFN-gamma production, ELISPOT)",[1]; listed as TTLL4-A24-9-750,potent IFN-gamma production; also recorded: significant and specific CTL activity
same,IFN-gamma production of CTL lines (ELISA),[2],potent IFN-gamma production
same,IFN-gamma production of CTL clones (ELISA),[3]; listed as TTLL4-A24-9-750,Potent IFN-gamma productions
SYDPLRIYLF [SEQ ID NO: 21],"Peptide specific CTL activity (IFN-gamma production, ELISPOT)",[1]; listed as TTLL4-A24-10-773,potent IFN-gamma production; also recorded: significant and specific CTL activity
same,IFN-gamma production of CTL lines (ELISA),[2],potent IFN-gamma production
same,IFN-gamma production of CTL clones (ELISA),[3]; listed as TTLL4-A24-10-773,Potent IFN-gamma productions
same,Specific CTL activity against COS7 cells transfected with both TTLL4 and HLA-A*2402,[4]; listed as TTLL4-A24-10-773,specific CTL activity; also recorded: potent CTL activity
same,Specific CTL activity against control COS7 cells expressing either HLA-A*2402 or TTLL4,[4],no significant specific CTL activity was detected
